The target in one test is JAK-2 enzyme (Homo sapiens, UniProt O60674). Put plainly: JAK2 Inhibition Assay. As to conditions: 15 μM poly(Glu)4Tyr, 12 μM ATP, 25° C. Type of test: biochemical. The gist of the method: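 JAK2 kinase in HEPES pH 7.4 buffer with MgCl2, DTT, NaCl and BSA; final 15 μM poly(Glu)4Tyr and 12 μM [33P]ATP. Enzyme added to start, 20 min at 25 °C, TCA stop, filter capture and scintillation count of 33P incorporation; Ki values.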

The target in the next test is T1, JAK3 (Homo sapiens, UniProt P52333).
T1 sequence (P52333 1-1124): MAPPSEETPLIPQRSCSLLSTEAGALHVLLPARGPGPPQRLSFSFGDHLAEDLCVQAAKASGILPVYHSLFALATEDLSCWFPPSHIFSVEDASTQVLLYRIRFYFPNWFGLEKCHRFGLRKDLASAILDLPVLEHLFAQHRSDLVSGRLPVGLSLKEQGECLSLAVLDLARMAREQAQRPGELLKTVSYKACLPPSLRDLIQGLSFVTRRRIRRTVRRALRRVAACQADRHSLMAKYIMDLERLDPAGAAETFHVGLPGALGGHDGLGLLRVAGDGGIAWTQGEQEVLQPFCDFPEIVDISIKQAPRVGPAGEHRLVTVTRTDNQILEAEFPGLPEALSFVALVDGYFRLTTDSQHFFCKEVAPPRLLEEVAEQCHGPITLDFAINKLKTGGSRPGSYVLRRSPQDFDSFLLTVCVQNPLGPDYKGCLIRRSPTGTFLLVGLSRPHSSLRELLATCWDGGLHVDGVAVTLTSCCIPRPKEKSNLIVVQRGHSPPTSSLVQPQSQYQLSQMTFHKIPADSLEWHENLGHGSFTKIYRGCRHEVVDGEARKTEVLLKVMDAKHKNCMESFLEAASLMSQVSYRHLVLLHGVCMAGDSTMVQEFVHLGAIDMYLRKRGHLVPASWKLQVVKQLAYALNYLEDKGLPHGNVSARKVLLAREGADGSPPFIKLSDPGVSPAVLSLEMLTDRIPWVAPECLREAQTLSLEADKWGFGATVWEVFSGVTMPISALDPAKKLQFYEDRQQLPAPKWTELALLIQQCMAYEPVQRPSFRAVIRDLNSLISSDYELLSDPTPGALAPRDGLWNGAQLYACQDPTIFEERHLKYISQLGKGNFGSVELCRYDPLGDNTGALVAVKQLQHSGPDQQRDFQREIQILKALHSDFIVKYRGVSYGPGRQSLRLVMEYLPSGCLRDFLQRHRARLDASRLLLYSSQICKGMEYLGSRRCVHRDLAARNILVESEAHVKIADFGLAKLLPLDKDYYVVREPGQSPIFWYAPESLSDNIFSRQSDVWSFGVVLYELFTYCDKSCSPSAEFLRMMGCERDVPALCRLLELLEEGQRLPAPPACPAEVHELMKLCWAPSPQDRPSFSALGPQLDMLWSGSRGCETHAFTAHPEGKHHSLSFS
Put plainly: JAK3 Inhibition Assay. Type of test: biochemical. To be noted: 1 μM poly(Glu)4Tyr, 5 μM ATP, 1 nM JAK3, 25° C.; read-out: JAK3 enzyme inhibition data (Ki). In outline: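 Radiometric JAK3 (1 nM) reaction with 5 μM [33P]ATP and 1 μM poly(Glu)4Tyr in HEPES pH 7.4 buffer, run for 20 min at 25 °C. Reactions were stopped with TCA and filter-captured, and 33P incorporation was counted; values reported as Ki.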

Chain of JAK-2 enzyme (O60674 whole entry, species assumed): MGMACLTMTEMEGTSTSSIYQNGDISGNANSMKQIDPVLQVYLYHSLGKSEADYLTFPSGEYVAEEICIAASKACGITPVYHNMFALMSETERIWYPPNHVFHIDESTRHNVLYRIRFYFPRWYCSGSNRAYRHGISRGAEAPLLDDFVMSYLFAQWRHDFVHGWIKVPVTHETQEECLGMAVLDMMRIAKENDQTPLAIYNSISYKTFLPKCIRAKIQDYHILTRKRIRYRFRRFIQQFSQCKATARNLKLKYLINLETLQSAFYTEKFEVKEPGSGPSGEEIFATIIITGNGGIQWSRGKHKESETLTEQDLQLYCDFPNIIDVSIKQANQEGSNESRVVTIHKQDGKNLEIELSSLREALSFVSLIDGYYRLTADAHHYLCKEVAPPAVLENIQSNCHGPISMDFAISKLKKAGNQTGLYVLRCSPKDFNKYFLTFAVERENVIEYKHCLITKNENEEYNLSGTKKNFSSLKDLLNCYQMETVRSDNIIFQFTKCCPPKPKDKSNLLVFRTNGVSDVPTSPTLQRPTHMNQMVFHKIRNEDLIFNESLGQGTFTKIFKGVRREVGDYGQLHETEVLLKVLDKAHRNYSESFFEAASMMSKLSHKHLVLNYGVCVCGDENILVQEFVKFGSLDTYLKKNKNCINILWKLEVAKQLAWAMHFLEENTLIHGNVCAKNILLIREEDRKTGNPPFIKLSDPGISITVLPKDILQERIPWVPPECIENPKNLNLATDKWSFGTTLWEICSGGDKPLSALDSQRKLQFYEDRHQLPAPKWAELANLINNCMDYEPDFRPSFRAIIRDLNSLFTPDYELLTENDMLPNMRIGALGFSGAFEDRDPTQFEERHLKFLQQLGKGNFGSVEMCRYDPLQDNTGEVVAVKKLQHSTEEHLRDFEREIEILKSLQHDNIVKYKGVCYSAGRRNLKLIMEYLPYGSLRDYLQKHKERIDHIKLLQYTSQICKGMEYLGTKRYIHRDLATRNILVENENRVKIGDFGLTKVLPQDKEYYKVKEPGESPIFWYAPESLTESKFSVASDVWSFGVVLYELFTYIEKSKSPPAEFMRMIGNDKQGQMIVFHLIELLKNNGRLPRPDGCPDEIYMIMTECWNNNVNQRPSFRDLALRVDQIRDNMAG

For the molecule `O=C(c1cc(-c2ncnc3[nH]ccc23)co1)N(CCC(F)(F)F)CC1CC1` [Compound 229, N-(cyclopropylmethyl)-4-(7H-pyrrolo[2,3-d]pyrimidin-4-yl)-N-(3,3,3-trifluoropropyl)furan-2-carboxamide], the Ki (in general, a dissociation constant, usually derived from enzyme kinetics or from competition with a known ligand) at JAK-2 enzyme was below 100 nM; on JAK3 it was 100 to 500 nM.
For `C=CCN(CC=C)C(=O)c1cc(-c2ncnc3[nH]ccc23)co1` [Compound 245] the same measures were below 100 nM and 100 to 500 nM.
As to `N#CCCN(CC1CC1)C(=O)c1cc(-c2ncnc3[nH]ccc23)c[nH]1` [Compound 115], the Ki on JAK-2 enzyme and on JAK3 was below 100 nM in each case.
For the molecule `C=CCN(C(=O)c1cc(-c2ncnc3[nH]ccc23)c[nH]1)C(C)c1ccccc1` (stereo not drawn) [Compound 116], the Ki on JAK-2 enzyme and at JAK3 was below 100 nM throughout.
With `CCCn1cc(-c2ncnc3[nH]cc(C)c23)cn1` [Compound 161], the inhibition constant (Ki) at JAK-2 enzyme and at JAK3 was 100 to 500 nM each time.
On to `O=C(Nc1nc(-c2ncnc3[nH]ccc23)cs1)C(O)C(F)(F)F` (stereo not drawn) [Compound 100], for which the Ki at JAK-2 enzyme and at JAK3 was below 100 nM each time.
On to `COC1CCC(C(=O)Nc2nc(-c3ncnc4[nH]ccc34)cs2)CC1` (stereo not drawn) [Compound 117], for which the Ki was below 100 nM at JAK-2 enzyme and 100 to 500 nM at JAK3.
For `CC(C)CN(CCC#N)C(=O)c1cc(-c2ncnc3[nH]cc(Cl)c23)c[nH]1` [Compound 243] the same measures were below 100 nM and below 100 nM.
Regarding `O=C(NCC(F)F)c1cc(-c2ncnc3[nH]ccc23)c[nH]1` [Compound 10], the Ki at JAK-2 enzyme and on JAK3 was below 100 nM throughout.
As for `CC(C)CC(=O)N(CCCC(F)(F)F)c1nc(-c2ncnc3[nH]ccc23)cs1` [Compound 129], the Ki on JAK-2 enzyme was below 100 nM; on JAK3 it was 100 to 500 nM.
Take `Cn1cc(-c2ncnc3[nH]ccc23)cc1C(=O)N(CCC(F)(F)F)CC1CC1` [Compound 225]: the Ki at JAK-2 enzyme and at JAK3 was below 100 nM in each case.
Take `Cn1cc(-c2ncnc3[nH]ccc23)cn1` [Compound 3]: the Ki on JAK-2 enzyme and at JAK3 was 100 to 500 nM throughout.
With `CC#CCN(CC(C)C)C(=O)c1cc(-c2ncnc3[nH]ccc23)c[nH]1` [Compound 189], the Ki at JAK-2 enzyme and at JAK3 was below 100 nM throughout.
On to `CC1CCC(C(=O)Nc2nc(-c3ncnc4[nH]ccc34)cs2)CC1` (stereo not drawn) [Compound 62], for which the Ki on JAK-2 enzyme was below 100 nM; at JAK3, 100 to 500 nM.
Regarding `CCCCN(CCC)C(=O)c1cc(-c2ncnc3[nH]cc(C)c23)c[nH]1` [Compound 209], the Ki was below 100 nM on JAK-2 enzyme and 100 to 500 nM on JAK3.
For the molecule `O=C(Nc1nc(-c2ncnc3[nH]ccc23)cs1)C1CCOCC1` [Compound 61], the Ki at JAK-2 enzyme and at JAK3 was below 100 nM throughout.
Turning to `O=C(c1cc(-c2ncnc3[nH]ccc23)c[nH]1)N1CCCC(O)C1` (stereo not drawn) [Compound 51], the Ki was 100 to 500 nM at JAK-2 enzyme and 500 to 5000 nM on JAK3.
Consider `CC(=O)NCCCC(=O)Nc1nc(-c2ncnc3[nH]ccc23)cs1` [Compound 168], for which the Ki on JAK-2 enzyme is below 100 nM; on JAK3, 100 to 500 nM.
For `CCN(CCC#N)C(=O)c1cc(-c2ncnc3[nH]ccc23)c[nH]1` [Compound 16] the same measures were below 100 nM and below 100 nM.
For the molecule `CC(=O)N1CCC(C(=O)Nc2nc(-c3ncnc4[nH]ccc34)cs2)CC1` [Compound 169], the inhibitory constant (Ki) on JAK-2 enzyme and on JAK3 was below 100 nM throughout.
As to `O=C(c1ccc(-c2ncnc3[nH]ccc23)o1)N(CCC(F)(F)F)CC1CC1` [Compound 122], the Ki on JAK-2 enzyme and at JAK3 was below 100 nM each time.
Regarding `CC(C)CCC(=O)Nc1nc(-c2ncnc3[nH]ccc23)cs1` [Compound 72], the Ki at JAK-2 enzyme and on JAK3 was below 100 nM each time.
With `CS(=O)(=O)N1CCC(C(=O)Nc2nc(-c3ncnc4[nH]ccc34)cs2)CC1` [Compound 179], the Ki at JAK-2 enzyme and on JAK3 was below 100 nM in each case.
As for `CC(C(=O)NC1CC1)n1cc(-c2ncnc3[nH]ccc23)cn1` (stereo not drawn) [Compound 73], the Ki at JAK-2 enzyme and at JAK3 was 100 to 500 nM each time.
For `CC(C(=O)N(C)C)n1cc(-c2ncnc3[nH]ccc23)cn1` (stereo not drawn) [Compound 77], the Ki lay within 100 to 500 nM on JAK-2 enzyme and 500 to 5000 nM on JAK3.
As to `O=C(c1cc(-c2ncnc3[nH]cc(Cl)c23)c[nH]1)N(CC1CCC1)CC(F)(F)F` [Compound 240], the Ki on JAK-2 enzyme and on JAK3 was below 100 nM each time.
`O=C(c1cc(-c2ncnc3[nH]ccc23)c[nH]1)N(CC1CCCC1)CC(F)(F)F` [Compound 186]: the Ki at JAK-2 enzyme was below 100 nM; at JAK3 it was 100 to 500 nM.
For `CC(C(=O)NCc1cccn1C)n1cc(-c2ncnc3[nH]ccc23)cn1` (stereo not drawn) [Compound 89], the Ki at JAK-2 enzyme was below 100 nM; on JAK3, 100 to 500 nM.
For `CC(C)CN(CCC#N)C(=O)c1ccc(-c2ncnc3[nH]ccc23)o1` [Compound 192] the same measures were below 100 nM and below 100 nM.
`CCCCN(CC)C(=O)c1cc(-c2ncnc3[nH]cc(C)c23)c[nH]1` [Compound 201]: the Ki on JAK-2 enzyme was below 100 nM; on JAK3, 100 to 500 nM.
Take `CCCn1cc(-c2ncnc3[nH]ccc23)cn1` [Compound 106]: the Ki is below 100 nM at JAK-2 enzyme and 100 to 500 nM at JAK3.
`CC(C)Cn1cc(-c2ncnc3[nH]cc(Cl)c23)cn1` [Compound 166]: the Ki at JAK-2 enzyme is below 100 nM; at JAK3, 100 to 500 nM.
Take `O=C(c1ccc(-c2ncnc3[nH]ccc23)o1)N(CC1CCCC1)CC(F)(F)F` [Compound 191]: the Ki at JAK-2 enzyme and on JAK3 was below 100 nM each time.
Take `CCN(CCC#N)C(=O)c1cc(-c2ncnc3[nH]cc(C)c23)c[nH]1` [Compound 207]: the Ki was below 100 nM at JAK-2 enzyme and 100 to 500 nM at JAK3.
Turning to `CCCN(C(=O)CC(C)C)c1nc(-c2ncnc3[nH]ccc23)cs1` [Compound 103, 3-Methyl-N-propyl-N-[4-(7H-pyrrolo[2,3-d]pyrimidin-4-yl)-thiazol-2-yl]-butyramide], the Ki on JAK-2 enzyme and on JAK3 was below 100 nM each time.
For `CCCCN(CC#N)C(=O)c1cc(-c2ncnc3[nH]ccc23)c[nH]1` [Compound 19], the Ki at JAK-2 enzyme and at JAK3 was below 100 nM throughout.
`O=C(c1cc(-c2ncnc3[nH]ccc23)co1)N(CC1CC1)CC(F)(F)F` [Compound 231, N-(cyclopropylmethyl)-4-(7H-pyrrolo[2,3-d]pyrimidin-4-yl)-N-(2,2,2-trifluoroethyl)furan-2-carboxamide]: the inhibition constant Ki at JAK-2 enzyme and at JAK3 was below 100 nM throughout.
For `Cc1c[nH]c2ncnc(-c3cnn(CC(C)C)c3)c12` [Compound 162], the Ki is below 100 nM at JAK-2 enzyme and 100 to 500 nM at JAK3.
For `CCCC(C)n1cc(-c2ncnc3[nH]ccc23)cn1` (stereo not drawn) [Compound 38], the Ki at JAK-2 enzyme and at JAK3 was below 100 nM in each case.
For the molecule `Cc1c[nH]c2ncnc(-c3c[nH]c(C(=O)N(C)CCc4ccccc4)c3)c12` [Compound 203], the Ki was below 100 nM at JAK-2 enzyme and 100 to 500 nM on JAK3.
For `C=CCN(C(=O)c1ccc(-c2ncnc3[nH]ccc23)o1)[C@H](C)c1ccccc1` [Compound 220], the Ki on JAK-2 enzyme is below 100 nM; on JAK3, 100 to 500 nM.
Take `c1nc(-c2ccsc2)c2cc[nH]c2n1` [Compound 2]: the Ki at JAK-2 enzyme and on JAK3 was 100 to 500 nM each time.
Consider `CCOC(=O)C1CCN(C(=O)c2cc(-c3ncnc4[nH]ccc34)c[nH]2)CC1` [Compound 43], for which the Ki at JAK-2 enzyme and on JAK3 was 500 to 5000 nM in each case.
In the case of `O=C(c1cc(-c2ncnc3[nH]cc(Cl)c23)c[nH]1)N(CCC(F)(F)F)CC1CCC1` [Compound 241], the Ki at JAK-2 enzyme was below 100 nM; at JAK3, 100 to 500 nM.
With `O=C1[C@H]2CCCC[C@H]2C(=O)N1c1nc(-c2ncnc3[nH]ccc23)cs1` [Compound 181], the Ki at JAK-2 enzyme and at JAK3 was 100 to 500 nM each time.

These data come from US20090227607A1, “DEAZAPURINES USEFUL AS INHIBITORS OF JANUS KINASES” (priority 2006, published 2009).
